From patent publication US20110028566A1, “COMPOSITIONS AND PRODUCTS CONTAINING CYCLOALIPHATIC DIOL ANTIMICROBIAL AGENTS AND METHODS OF USING THE COMPOSITIONS AND PRODUCTS” (EASTMAN CHEMICAL COMPANY, priority 2009, published 2011)

Columns and labels:
Assay in all cases: Microbial challenge testing in BPW
Type in all cases: cell-based
Escherichia coli = conditions: 0.2%
Procedure: (§1) The microorganisms used in challenge tests are given in Table 3, designated as either ATCC (American Type Culture Collection) or wild type. These wild type organisms were problematic organisms previously isolated from chemical products. In the description for each organism, the bacteria are indicated as either GN (Gram negative) or GP (Gram positive).
(§2) All of the microorganisms were grown in Tryptose Soy Broth (TSB), DIFCO™ available from Becton, Dickinson and Company, containing 1% dextrose. Aspergillus niger and Candida albicans were incubated at 22° C.±2° C. for at least 96 hours. All bacteria were incubated at 35° C.±2° C. in a humidified incubator for at least 96 hours.
(§3) The following procedure was followed to determine the amount of each challenge material (inoculum broth) required to produce a 10^8 cfu/mL challenge, which is equivalent to a final test-sample microbial concentration of 10^5 to 10^6 cfu (colony-forming units)/mL.
(§4) Using a sterile serological pipette, 1 mL of the growth from each TSB culture was transferred into tubes containing 9 mL phosphate buffer (pH 7.2) and mixed thoroughly. This process was repeated to make serial 1:10 dilutions. Then 0.1 mL of each sample and dilution was inoculated onto agar plates to produce the equivalent of a further 1:10 dilution. C. albicans and A. niger were inoculated onto SDA and bacteria were inoculated onto Plate Count Agar (PCA), DIFCO™ available from Becton, Dickinson and Company. The 0.1 mL aliquots were evenly distributed on the plates using the spread-plate technique. The spread-plate technique is performed by spreading the aliquot over the entire plate surface using a sterile spreading rod while rotating the plate with a rotary auto-plater. After the inoculum was absorbed completely, each plate was inverted and incubated (fungi at 22° C.±2° C. and bacteria at 35° C.±2° C.).
(§5) After incubation for at least 48 hours, colonies that had developed on the agar plates were counted and recorded with the corresponding dilution. If counting had to be delayed temporarily, plates were refrigerated, preferably no more than 24 hours, until they could be counted. The number of cfu/mL was determined by multiplying the count by the dilution factor for that particular plate.
(§6) Turbidity in Nepholemetric Turbidity Units (NTU) was measured for each serial dilution using the HF-Micro 100 Model Turbidimeter. For each microorganism, the plate counts were compared to the turbidity readings.
(§7) Control substrates (“broth alone”) were prepared for each microorganism separately in triplicate by adding 13.5 mL of BPW (pH 7.0) containing 1% (w/v) dextrose to each 20-mL glass tube; then adding 1.5 mL challenge material to produce a final concentration at time zero of 10^5 to 10^6 cfu/mL and a total volume of 15 mL.
(§8) Test sample substrates were prepared containing each test material (1,4-CHDM, etc) or combination of test materials at the concentrations shown in Tables 5 and 6. Sample substrates were prepared in triplicate, except those substrates containing PE or CG which were prepared in duplicate. Substrates were prepared by adding BPW containing 1% (w/v) dextrose to each 20-mL glass tube, then adding the test material in the amount appropriate to achieve the desired weight/volume percent (g/100 mL) and to obtain a total volume of BPW with dextrose and test material of 13.5 mL. Then 1.5 mL challenge material was added to produce a final concentration at time zero of 10^5 to 10^6 cfu/mL of the respective organism and a total test sample substrate volume of 15 mL.
(§9) After mixing, all challenged substrates were incubated at 35° C.±2° C. for 14 days and then at ambient room temperature.

Proteus vulgaris = test system: Proteus vulgaris
Procedure: as §1, §2, §3, §4, §5, §6, §7, §8, §9

Pseudomonas aeruginosa = test system: Pseudomonas aeruginosa
Procedure: as §1, §2, §3, §4, §5, §6, §7, §8, §9

Staphylococcus aureus = test system: Staphylococcus aureus
Procedure: as §1, §2, §3, §4, §5, §6, §7, §8, §9

[1] = test system: Staphylococcus epidermidis
Procedure: as §1, §2, §3, §4, §5, §6, §7, §8, §9

Streptococcus mutans = test system: Streptococcus mutans
Procedure: as §1, §2, §3, §4, §5, §6, §7, §8, §9

## O=c1[nH]sc2ccccc12 [BIT, 1,2-benzisothiazolin-3-one]
Escherichia coli; 3 days incubation
  Grade code E. coli: 1 (1 to 51 colonies counted (thus 10 to 510 cfu/mL))
Escherichia coli; 14 days incubation
  Grade code E. coli: 0 (No growth detected or <1 colony (thus <10 cfu/mL))
Escherichia coli; 30 days incubation
  Grade code E. coli: 0 (No growth detected or <1 colony (thus <10 cfu/mL))
Proteus vulgaris; 0.05%, 3 days incubation
  Grade code P. vulqaris: 4 (1001 to 10,000 colonies (thus 10,000 cfu/mL to 100,000 cfu/mL))
Proteus vulgaris; 0.05%, 13 days incubation
  Grade code P. vulqaris: 4 (1001 to 10,000 colonies (thus 10,000 cfu/mL to 100,000 cfu/mL))
Proteus vulgaris; 0.05%, 30 days incubation
  Grade code P. vulqaris: 4 (1001 to 10,000 colonies (thus 10,000 cfu/mL to 100,000 cfu/mL))
Proteus vulgaris; 0.2%, 3 days incubation
  Grade code P. vulqaris: 4 (1001 to 10,000 colonies (thus 10,000 cfu/mL to 100,000 cfu/mL))
Proteus vulgaris; 0.2%, 13 days incubation
  Grade code P. vulqaris: 2 (52 to 100 colonies counted (thus 520 to 1000 cfu/mL))
Proteus vulgaris; 0.2%, 30 days incubation
  Grade code P. vulqaris: 0 (No growth detected or <1 colony (thus <10 cfu/mL))
Pseudomonas aeruginosa; 0.05%, 3 days incubation
  Grade code P. aeruginosa: 4 (1001 to 10,000 colonies (thus 10,000 cfu/mL to 100,000 cfu/mL))
Pseudomonas aeruginosa; 0.05%, 13 days incubation
  Grade code P. aeruginosa: 4 (1001 to 10,000 colonies (thus 10,000 cfu/mL to 100,000 cfu/mL))
Pseudomonas aeruginosa; 0.05%, 30 days incubation
  Grade code P. aeruginosa: 4 (1001 to 10,000 colonies (thus 10,000 cfu/mL to 100,000 cfu/mL))
Pseudomonas aeruginosa; 0.2%, 3 days incubation
  Grade code P. aeruginosa: 3 (101 to 1000 colonies (thus 1000 to 10,000 cfu/mL))
Pseudomonas aeruginosa; 0.2%, 13 days incubation
  Grade code P. aeruginosa: 4 (1001 to 10,000 colonies (thus 10,000 cfu/mL to 100,000 cfu/mL))
Pseudomonas aeruginosa; 0.2%, 30 days incubation
  Grade code P. aeruginosa: 4 (1001 to 10,000 colonies (thus 10,000 cfu/mL to 100,000 cfu/mL))
Staphylococcus aureus; 0.05%, 3 days incubation
  Grade code S. aureus: 4 (1001 to 10,000 colonies (thus 10,000 cfu/mL to 100,000 cfu/mL))
Staphylococcus aureus; 0.05%, 14 days incubation
  Grade code S. aureus: 4 (1001 to 10,000 colonies (thus 10,000 cfu/mL to 100,000 cfu/mL))
Staphylococcus aureus; 0.05%, 30 days incubation
  Grade code S. aureus: 4 (1001 to 10,000 colonies (thus 10,000 cfu/mL to 100,000 cfu/mL))
Staphylococcus aureus; 0.2%, 3 days incubation
  Grade code S. aureus: 4 (1001 to 10,000 colonies (thus 10,000 cfu/mL to 100,000 cfu/mL))
Staphylococcus aureus; 0.2%, 14 days incubation
  Grade code S. aureus: 3 (101 to 1000 colonies (thus 1000 to 10,000 cfu/mL))
Staphylococcus aureus; 0.2%, 30 days incubation
  Grade code S. aureus: 3 (101 to 1000 colonies (thus 1000 to 10,000 cfu/mL))
[1]; 0.05%, 3 days incubation
  Grade code S. epidermidis: 4 (1001 to 10,000 colonies (thus 10,000 cfu/mL to 100,000 cfu/mL))
[1]; 0.05%, 13 days incubation
  Grade code S. epidermidis: 4 (1001 to 10,000 colonies (thus 10,000 cfu/mL to 100,000 cfu/mL))
[1]; 0.05%, 30 days incubation
  Grade code S. epidermidis: 4 (1001 to 10,000 colonies (thus 10,000 cfu/mL to 100,000 cfu/mL))
[1]; 0.2%, 3 days incubation
  Grade code S. epidermidis: 4 (1001 to 10,000 colonies (thus 10,000 cfu/mL to 100,000 cfu/mL))
[1]; 0.2%, 13 days incubation
  Grade code S. epidermidis: 2 (52 to 100 colonies counted (thus 520 to 1000 cfu/mL))
[1]; 0.2%, 30 days incubation
  Grade code S. epidermidis: 2 (52 to 100 colonies counted (thus 520 to 1000 cfu/mL))
Streptococcus mutans; 0.05%, 3 days incubation
  Grade code S. mutans: 1.7
Streptococcus mutans; 0.05%, 13 days incubation
  Grade code S. mutans: 0 (No growth detected or <1 colony (thus <10 cfu/mL))
Streptococcus mutans; 0.05%, 30 days incubation
  Grade code S. mutans: 0 (No growth detected or <1 colony (thus <10 cfu/mL))
Streptococcus mutans; 0.2%, 3 days incubation
  Grade code S. mutans: 0 (No growth detected or <1 colony (thus <10 cfu/mL))
Streptococcus mutans; 0.2%, 13 days incubation
  Grade code S. mutans: 0 (No growth detected or <1 colony (thus <10 cfu/mL))
Streptococcus mutans; 0.2%, 30 days incubation
  Grade code S. mutans: 0 (No growth detected or <1 colony (thus <10 cfu/mL))
Streptococcus mutans; BIT alone
  Effectiveness against S. mutans (in words): highly effective
